Results: patent publication US20260176282A1, “BICYCLIC COMPOUNDS AS CDK INHIBITORS” (BEONE MEDICINES I GMBH, priority 2023, published 2026)
Where two headings read alike, the source gives them in different places.

What was measured:
[1] = target: T1, CDK1/Cyclin B1 (Homo sapiens, UniProt P06493); test: CDK1/Cyclin B1 TR-FRET biochemical assay (0.015 mM ATP); details: 120 minutes reaction
Procedure: (§1) Compounds disclosed herein were tested for inhibition of CDK2/Cyclin E1 or CDK1/Cyclin B1 kinase in an assay based on the time-resolved fluorescence-resonance energy transfer (TR-FRET) methodology. The assay was carried out in 384-well low volume black plates in a reaction mixture containing CDK2/Cyclin E1 or CDK1/Cyclin B1, 0.060 mM ATP for CDK2/Cyclin E1 or 0.015 mM ATP for CDK1/Cyclin B1, 0.15 μM Rb (Ser780)-biotin substrate and 0-10 μM compound in buffer containing 50 mM HEPES pH7.0, 0.02% NaN3, 0.01% BSA, 0.1 mM Orthovanadate, 50 mM MgCl2, 1 mM DTT and 0.005% Tween-20. The kinase was incubated with compound for 60 minutes at room temperature and the reaction was initiated by the addition of ATP and Rb (Ser780)-biotin substrate. After reaction at room temperature for 120 minutes, an equal volume of stop/detection solution was added according to the manufacture's instruction (Cisbio Bioassays). The stop/detection solution contained Streptavidin-XL665 and Anti-pRb (Ser780) mAb-Eu Cryptate in Detection buffer (Cisbio Bioassays). Plates were incubated at room temperature for 60 minutes, and the TR-FRET signals (ex337 nm, em665 nm/620 nm) were recorded on a PHERAstar FSX plate reader (BMG Labtech). The inhibition percentage of CDK2/Cyclin E1 or CDK1/Cyclin B1 kinase activity in presence of increasing concentrations of compounds was calculated based on the ratio of fluorescence at 665 nm to that at 620 nm. The IC50 for each compound was derived from fitting the data to the four-parameter logistic equation by Dotmatics.

[2] = target: T2, CDK2/Cyclin E1 (Homo sapiens, UniProt P24941); test: CDK2/Cyclin E1 TR-FRET biochemical assay (0.060 mM ATP); details: 120 minutes reaction
Procedure: as §1

[3] = test system: HEK-293 cells; test: HEK-293 cell cytotoxicity detection (CellTiter-Glo); format: cell-based; details: incubation of 72 h, CellTiter-Glo luminescence
Procedure: HEK-293 cells were treated with compounds diluted in 0.4% DMSO, dilution was done according to the following protocol: (1) making 250× stock solution in DMSO from 10 mM by 4-fold dilution, total 8 doses were included; (2) making 2 solution in cell culture medium by transferring 1 μl 250× stock solution into 124 μl medium; (3) adding 50 μl of 2× solution to cells for incubation of 72 h.
25 μl of the CellTiter-Glo® Reagent [(PromegaCat #G9242)] was added to each well in the 96-well plate. The contents were mixed for 2 minutes on an orbital shaker to induce cell lysis. The plate was then allowed to incubate at room temperature for 10 minutes to stabilize luminescent signal. Luminescence was recorded on BMG PheraStar with luminescence protocol.
The IC50 value of a compound can be obtained by fitting the following equation: […]
Wherein, X and Y are known values, and IC50, Hillslope, Top and Bottom are the parameters obtained by fitting with software. Y is the inhibition percentage (calculated from the equation), X is the concentration of the compound; IC50 is the concentration of the compound when the 50% inhibition is reached. The smaller the IC50 value is, the stronger the inhibitory ability of the compound is. Vice versa, the higher the IC50 value is, the weaker the ability the inhibitory ability of the compound is; Hillslope represents the slope of the fitted curve, generally around 1*; Bottom represents the minimum value of the curve obtained by data fitting, which is generally 0%±20%; Top represents the maximum value of the curve obtained by data fitting, which is generally 100%±20%. The experimental data were fitted by calculating and analyzing with Dotmatics data analysis software.

[4] = target: T2, CDK2/Cyclin E1; test: CDK2/Cyclin E1 TR-FRET biochemical assay (1 mM ATP); details: 90 minutes reaction
Procedure: as §1, with “1” for “0.060”, “and” for “or 0.015 mM ATP for”, “90” for “120”

[5] = target: T1, CDK1/Cyclin B1; test: CDK1/Cyclin B1 TR-FRET biochemical assay (1 mM ATP); details: 90 minutes reaction
Procedure: as §1, with “1” for “0.060”, “and” for “or 0.015 mM ATP for”, “90” for “120”

T1 sequence (P06493 whole entry): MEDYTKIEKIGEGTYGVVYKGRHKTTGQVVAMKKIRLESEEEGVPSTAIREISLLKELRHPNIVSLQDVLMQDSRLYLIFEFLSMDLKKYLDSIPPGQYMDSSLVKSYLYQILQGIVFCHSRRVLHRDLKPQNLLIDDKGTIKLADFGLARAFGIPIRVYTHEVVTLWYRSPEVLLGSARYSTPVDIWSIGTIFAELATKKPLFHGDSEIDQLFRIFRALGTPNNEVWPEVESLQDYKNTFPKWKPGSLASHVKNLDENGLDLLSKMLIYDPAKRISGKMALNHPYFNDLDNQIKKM
T1 sequence (P14635 whole entry partner): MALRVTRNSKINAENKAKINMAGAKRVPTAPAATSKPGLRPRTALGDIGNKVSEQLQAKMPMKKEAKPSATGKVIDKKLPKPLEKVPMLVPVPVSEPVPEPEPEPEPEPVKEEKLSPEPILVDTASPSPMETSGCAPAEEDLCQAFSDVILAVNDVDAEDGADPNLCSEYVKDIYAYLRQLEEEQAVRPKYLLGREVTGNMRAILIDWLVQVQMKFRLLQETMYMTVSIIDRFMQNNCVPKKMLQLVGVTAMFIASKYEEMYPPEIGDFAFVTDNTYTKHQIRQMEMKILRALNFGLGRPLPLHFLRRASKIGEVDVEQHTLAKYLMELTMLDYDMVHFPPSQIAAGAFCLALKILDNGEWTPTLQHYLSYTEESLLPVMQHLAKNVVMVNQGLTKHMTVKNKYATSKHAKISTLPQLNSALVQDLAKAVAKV

IC50 [1]	IC50 [2]	IC50 [4]	IC50 [5]	Compound	IC50 ([3]; Homo sapiens, HEK293, 72 h)	IC50 ([3]; read-out: HEK293 IC50)
10 nM	0.6 nM			COCC(C)(C)NC(=O)O[C@H]1CC[C@@H](c2cc(Nc3ccc4c(c3F)CS(=O)(=O)C4)n[nH]2)C1 (relative stereo) [Example 14, cis-3-(3-((4-fluoro-2,2-dioxido-1,3-dihydrobenzo[c]thiophen-5-yl)amino)-1H-pyrazol-5-yl)cyclopentyl (1-methoxy-2-methylpropan-2-yl)carbamate]	> 10000 nM	
117 nM	5 nM			CC[C@H](C)NC(=O)OC1CCC(c2cc(Nc3ccc4c(c3F)S(=O)(=O)CC4)n[nH]2)C1 (stereo in doubt) [Example 5, cis-3-(3-((7-fluoro-1,1-dioxido-2,3-dihydrobenzo[b]thiophen-6-yl)amino)-1H-pyrazol-5-yl)cyclopentyl ((S)-sec-butyl)carbamate]	1650 nM	
12 nM	0.7 nM			CCCNC(=O)OC1CCC(c2cc(Nc3ccc4c(c3F)CS(=O)(=O)C4)n[nH]2)C1 (single isomer, unassigned) [Example 9b, cis-3-(3-((4-fluoro-2,2-dioxido-1,3-dihydrobenzo[c]thiophen-5-yl)amino)-1H-pyrazol-5-yl)cyclopentyl propylcarbamate]		4410 nM
50 nM	0.8 nM			CCCNC(=O)OC1CCC(c2cc(Nc3ccc4c(c3F)CS(=O)(=O)C4)n[nH]2)C1 (single isomer, unassigned) [Example 9a, cis-3-(3-((4-fluoro-2,2-dioxido-1,3-dihydrobenzo[c]thiophen-5-yl)amino)-1H-pyrazol-5-yl)cyclopentyl propylcarbamate]		> 10000 nM
		31 nM	4830 nM	O=C(NC1COC1)O[C@H]1CC[C@@H](c2cc(Nc3ccc4c(c3F)CS(=O)(=O)C4)n[nH]2)C1 (relative stereo) [Example 20, cis-3-(3-((4-fluoro-2,2-dioxido-1,3-dihydrobenzo[c]thiophen-5-yl)amino)-1H-pyrazol-5-yl)cyclopentyl oxetan-3-ylcarbamate]	> 10000 nM	
		22 nM	4880 nM	CC(C)NC(=O)O[C@H]1CC[C@@H](c2cc(Nc3ccc4c(c3F)CSC4)n[nH]2)C1 (relative stereo) [Example 33, cis-3-(3-((4-fluoro-1,3-dihydrobenzo[c]thiophen-5-yl)amino)-1H-pyrazol-5-yl)cyclopentyl isopropylcarbamate]	> 10000 nM	
		0.9 nM	410 nM	O=C(NC1CCCC1)O[C@H]1CC[C@@H](c2cc(Nc3ccc4c(c3F)CS(=O)(=O)C4)n[nH]2)C1 (relative stereo) [Example 23, cis-3-(3-((4-fluoro-2,2-dioxido-1,3-dihydrobenzo[c]thiophen-5-yl)amino)-1H-pyrazol-5-yl)cyclopentyl cyclopentylcarbamate]	2860 nM	
		576 nM	> 10000 nM	CC(C)NC(=O)O[C@H]1CC[C@@H](c2cc(Nc3cc4c(cc3F)C[S+]([O-])C4)n[nH]2)C1 (relative stereo) [Example 29, cis-3-(3-((6-fluoro-2-oxido-1,3-dihydrobenzo[c]thiophen-5-yl)amino)-1H-pyrazol-5-yl)cyclopentyl isopropylcarbamate]	> 10000 nM	
		1.8 nM	768 nM	C[C@]1(O)CC[C@@H](NC(=O)OC2CCC(c3cc(Nc4ccc5c(c4F)CS(=O)(=O)C5)n[nH]3)C2)CC1 (stereo partly drawn) [Example 25, cis-3-(3-((4-fluoro-2,2-dioxido-1,3-dihydrobenzo[c]thiophen-5-yl)amino)-1H-pyrazol-5-yl)cyclopentyl ((1s,4s)-4-hydroxy-4-methylcyclohexyl)carbamate]	1130 nM	
		24 nM	2600 nM	CN(C(=O)O[C@H]1CC[C@@H](c2cc(Nc3ccc4c(c3F)CS(=O)(=O)C4)n[nH]2)C1)C1CCOC1 (relative stereo) [Example 21, cis-3-(3-((4-fluoro-2,2-dioxido-1,3-dihydrobenzo[c]thiophen-5-yl)amino)-1H-pyrazol-5-yl)cyclopentyl methyl(tetrahydrofuran-3-yl)carbamate]	> 10000 nM	
		33 nM	7450 nM	CC(C)NC(=O)O[C@H]1CC[C@@H](c2cc(Nc3cc4c(cc3F)CS(=O)(=O)C4)n[nH]2)C1 (relative stereo) [Example 27, cis-3-(3-((6-fluoro-2,2-dioxido-1,3-dihydrobenzo[c]thiophen-5-yl)amino)-1H-pyrazol-5-yl)cyclopentyl isopropylcarbamate]	> 10000 nM	
		0.5 nM	208 nM	CC1(NC(=O)OC2CCC(c3cc(Nc4ccc5c(c4F)CS(=O)(=O)C5)n[nH]3)C2)CCOC1 (single isomer, unassigned) [Example 13c, cis-3-(3-((4-fluoro-2,2-dioxido-1,3-dihydrobenzo[c]thiophen-5-yl)amino)-1H-pyrazol-5-yl)cyclopentyl (3-methyltetrahydrofuran-3-yl)carbamate]		1720 nM
		383 nM	> 10000 nM	CC(C)NC(=O)O[C@H]1CC[C@@H](c2cc(Nc3cc4c(cc3F)CSC4)n[nH]2)C1 (relative stereo) [Example 30, cis-3-(3-((6-fluoro-1,3-dihydrobenzo[c]thiophen-5-yl)amino)-1H-pyrazol-5-yl)cyclopentyl isopropylcarbamate]	> 10000 nM	
		2.3 nM	824 nM	O=C(N[C@H]1CC[C@@H](O)CC1)OC1CCC(c2cc(Nc3ccc4c(c3F)CS(=O)(=O)C4)n[nH]2)C1 (stereo partly drawn) [Example 17, cis-3-(3-((4-fluoro-2,2-dioxido-1,3-dihydrobenzo[c]thiophen-5-yl)amino)-1H-pyrazol-5-yl)cyclopentyl ((1s,4s)-4-hydroxycyclohexyl)carbamate]	990 nM	
		0.4 nM	169 nM	Cc1c(Nc2cc([C@@H]3CC[C@H](OC(=O)NC(C)C)C3)[nH]n2)ccc2c1CS(=O)(=O)C2 (relative stereo) [Example 35, cis-3-(3-((4-methyl-2,2-dioxido-1,3-dihydrobenzo[c]thiophen-5-yl)amino)-1H-pyrazol-5-yl)cyclopentyl isopropylcarbamate]	739 nM	
